The source made the active and inactive calls. The calls are words filed in the database; no cut-off is given here.
Key:
HeLa [1] = test: Cytotoxicity against human HeLa cells incubated for 48 hrs by MTT assay; type: functional, cell-based
Chloride [2] = test: Binding affinity to chloride anions assessed as chloride efflux in egg-yolk L-alpha-phosphatidylcholine liposome model harboring intravesicular NaCl/extravesicular Na2SO4
HeLa [3] = test: Cytotoxicity against human HeLa cells assessed as decrease in cell viability at 0.01 to 10 uM pretreated with Z-VAD-FMK/Fer-1 followed by compound addition by MTT assay; type: functional, cell-based; conditions: dose 0.01-10 µM
HeLa [4] = test: Induction of lipid peroxidation in human HeLa cells by flow cytometry; type: functional, cell-based; conditions: dose 0.1-1 µM
HeLa [5] = test: Induction of beta III-tubulin degradation in human HeLa cells incubated for 48 hrs by immunoblotting analysis; type: cell-based; conditions: dose 0.1-1 µM
HeLa [6] = test: Induction of ferroptosis in human HeLa cells assessed as decrease in Bcl-2 level at 0.1 to 1 uM incubated for 24 hrs by immunoblotting analysis; type: functional, cell-based; conditions: dose 0.1-1 µM
[7] = Toxicity in male Balb/C nude mouse xenografted with human HeLa cells assessed as abnormalities in heart at 10 to 20 mg/kg, ip administered on every 2 days measured after 18 days by H and E staining based analysis; type: organism-based; conditions: in vivo, 432 h, dose 10-20 mg/kg, time 18 day
[8] = target: T1, Tubulin alpha (Homo sapiens) (UniProt P0DPH7+P68366+Q71U36+P68363+Q9BQE3+Q6PEY2+A6NHL2+Q9NY65); test: Induction of alpha-tubulin degradation in human HeLa cells incubated for 48 hrs by immunoblotting analysis; type: cell-based; conditions: dose 0.1-1 µM
HeLa [9] = test: Induction of cell cycle arrest in human HeLa cells assessed as accumulation of cells at S phase at 1 uM incubated for 24 hrs by PI staining based flow cytometry relative to control; type: functional
Chloride [10] = test: Binding affinity to chloride anions assessed as chloride efflux in egg-yolk L-alpha-phosphatidylcholine liposome model harboring intravesicular RbCl/extravesicular NaNO3
HeLa [11] = test: Antitumor activity against human HeLa cells xenografted in male Balb/C nude mouse assessed as nuclear fragmentation at 10 to 20 mg/kg, ip administered on every 2 days measured after 18 days by H and E staining based analysis; type: functional, organism-based; conditions: dose 10-20 mg/kg, time 18.0 day
Chloride [12] = test: Binding affinity to chloride anions in human HeLa cells assessed as increase in chloride influx at 1 uM measured after 15 mins by flow cytometry; type: cell-based
HeLa [13] = test: Induction of mitochondrial membrane permeability in human HeLa cells assessed as red fluorescence at 0.1 uM incubated for 24 hrs by JC-1 staining based analysis (reference value: 98.5 %); type: functional
HeLa [14] = test: Induction of mitochondrial membrane permeability in human HeLa cells assessed as green fluorescence at 0.1 uM incubated for 24 hrs by JC-1 staining based analysis (reference value: 1.5 %); type: functional
Chloride [15] = test: Binding affinity to chloride anions assessed as binding constant at 1:1 stoichiometry of compound and tetrabutylammonium chloride salt by 1H NMR spectroscopy
[16] = Half life in male CD-1 mouse at 1 mg/kg, iv measured for 0.083 to 48 hrs by HPLC/MS/MS analysis; type: ADME, organism-based; conditions: in vivo, time 0.083-48 hrs
Chloride [17] = test: Binding affinity to chloride anions assessed as fold increase in anionophoric activity in egg-yolk L-alpha-phosphatidylcholine liposome model measured per lipid by pyranine-based fluorescent assay relative to m-Bimbe
HeLa [18] = test: In vivo induction of ferroptosis in human HeLa cells xenografted in male Balb/C nude mouse assessed as increase in cleaved caspase-3 level administered intraperitoneally on every 2 days measured after 18 days by immunoblotting analysis; type: functional, organism-based; conditions: dose 10-20 mg/kg, route ip, time 18.0 day
Chloride [19] = test: Binding affinity to chloride anions assessed as chloride efflux in egg-yolk L-alpha-phosphatidylcholine liposome model harboring intravesicular NaCl/extravesicular NaHCO3
HeLa [20] = test: Effect on ferroptosis pathway in human HeLa cells at 10 uM incubated for 48 hrs by KEGG analysis; type: functional, cell-based
HeLa [21] = test: Induction of mitochondrial membrane permeability in human HeLa cells at 0.625 to 5 uM incubated for 24 hrs by JC-1 staining based analysis; type: functional, cell-based; conditions: dose 0.625-5 µM
Liposome = test: Disruption of egg-yolk L-alpha-phosphatidylcholine liposome model membrane assessed as calcein leakage by fluorescence based assay; type: subcellular
HeLa [22] = test: Induction of lipid peroxidation in human HeLa cells assessed as increase in ROS generation incubated for 24 hrs by flow cytometry; type: functional, cell-based; conditions: dose 0.1-1 µM
[23] = MRT (0 to t) in male CD-1 mouse at 1 mg/kg, ip measured for 0.083 to 48 hrs by HPLC/MS/MS analysis; type: ADME, organism-based; conditions: in vivo, time 0.083-48 hrs
HeLa [24] = test: Induction of mitochondrial membrane permeability in human HeLa cells assessed as green fluorescence at 1 uM incubated for 24 hrs by JC-1 staining based analysis (reference value: 1.5 %); type: functional
HeLa [25] = test: Induction of beta III-tubulin degradation in human HeLa cells up to 10 uM preincubated with MG132 followed by compound addition measured after 24 hrs by immunoblotting analysis; type: cell-based
[26] = target: T1, Tubulin alpha (Homo sapiens); test: Induction of alpha-tubulin degradation in human HeLa cells at 1 uM preincubated with MG132 followed by compound addition measured after 24 hrs by immunoblotting analysis; type: cell-based
[27] = Toxicity in male Balb/C nude mouse xenografted with human HeLa cells assessed as abnormalities in spleen at 10 to 20 mg/kg, ip administered on every 2 days measured after 18 days by H and E staining based analysis; type: organism-based; conditions: in vivo, 432 h, dose 10-20 mg/kg, time 18 day
MCF7 = test: Cytotoxicity against human MCF7 cells incubated for 48 hrs by MTT assay; type: functional, cell-based; conditions: MCF7, 48 h

Activity (Chloride [2]): inactive
Activity [8]: Dose-dependent-effect
Activity (Chloride [10]): Active
K (Chloride [15]): 5250 M⁻¹
half-life [16]: 307 min
fold change (FC) (Chloride [17]): 2.32 10^2No_unit
Activity (Chloride [19]): Active
Activity (Liposome): inactive
MRT last [23]: 24.9 h
Activity [26]: inactive
SMILES: Fc1cc(-c2nc3c(C(F)(F)F)cc(C(F)(F)F)cc3[nH]2)cc(-c2nc3c(C(F)(F)F)cc(C(F)(F)F)cc3[nH]2)c1
IC50 (HeLa [1]): 120 nM
Activity (HeLa [3]): Not active; Z-Vad-Fmk/Fer-1 Rescued Cells In Dose-Dependent Manner
Activity (HeLa [4]): Dose-dependent-effect
Activity (HeLa [5]): Dose-dependent-effect
Activity (HeLa [6]): Active
Activity [7]: Non-toxic
Activity (HeLa [9]): 48%
Activity (HeLa [11]): Active
Activity (Chloride [12]): inactive
Activity (HeLa [13]): 90.5%
Activity (HeLa [14]): 9.5%
Activity (HeLa [18]): Dose-dependent-effect
Activity (HeLa [20]): Active
Activity (HeLa [21]): Active
Activity (HeLa [22]): Dose-dependent-effect
Activity (HeLa [24]): 66.8%
Activity (HeLa [25]): inactive
Activity [27]: Non-toxic
IC50 (MCF7): 770 nM

— ChEMBL document CHEMBL6178013, “Ferroptosis of Cancer Cells via Tubulin Degradation and Mitochondrial Dysfunction: A Novel Mechanism of Anticancer Effect for Small-Molecule Anion Transporters” (J Med Chem, 2025)
